Measurements published in patent US6897219B2, “Heteroaryl diazacycloalkanes, their preparation and use” (priority 1997, dated 2005).
Structures can show the parent of a compound that is named as a salt. Where two headings read alike, the source gives them in different places.

Tests used:
[1] = molecular target: nAChR formed by the α7 subunit isoform (Rattus norvegicus, UniProt Q05941); assay: biochemical; assay type: binding
[2] = molecular target: nAChRs comprised of α4 and β2 subunits (Rattus norvegicus, UniProt P09483+P12390); assay: In vitro inhibition of 3H-cytisine binding
Chain of nAChRs comprised of α4 and β2 subunits (P09483 31-630): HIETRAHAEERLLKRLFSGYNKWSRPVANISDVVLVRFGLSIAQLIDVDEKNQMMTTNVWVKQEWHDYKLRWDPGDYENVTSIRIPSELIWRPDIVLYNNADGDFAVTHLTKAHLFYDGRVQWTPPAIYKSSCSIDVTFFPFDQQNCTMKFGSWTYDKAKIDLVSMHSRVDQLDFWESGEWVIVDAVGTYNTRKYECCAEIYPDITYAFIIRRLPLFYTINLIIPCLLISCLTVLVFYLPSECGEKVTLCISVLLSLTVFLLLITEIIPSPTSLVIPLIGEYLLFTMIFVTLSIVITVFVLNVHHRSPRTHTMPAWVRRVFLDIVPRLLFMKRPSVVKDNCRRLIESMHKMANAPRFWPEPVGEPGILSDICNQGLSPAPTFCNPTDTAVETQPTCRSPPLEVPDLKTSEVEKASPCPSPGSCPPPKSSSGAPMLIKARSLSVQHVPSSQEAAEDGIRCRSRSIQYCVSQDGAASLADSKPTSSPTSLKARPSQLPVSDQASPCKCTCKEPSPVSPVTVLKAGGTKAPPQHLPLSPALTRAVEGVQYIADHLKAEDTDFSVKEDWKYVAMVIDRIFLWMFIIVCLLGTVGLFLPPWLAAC
Chain of nAChRs comprised of α4 and β2 subunits (P12390 25-500): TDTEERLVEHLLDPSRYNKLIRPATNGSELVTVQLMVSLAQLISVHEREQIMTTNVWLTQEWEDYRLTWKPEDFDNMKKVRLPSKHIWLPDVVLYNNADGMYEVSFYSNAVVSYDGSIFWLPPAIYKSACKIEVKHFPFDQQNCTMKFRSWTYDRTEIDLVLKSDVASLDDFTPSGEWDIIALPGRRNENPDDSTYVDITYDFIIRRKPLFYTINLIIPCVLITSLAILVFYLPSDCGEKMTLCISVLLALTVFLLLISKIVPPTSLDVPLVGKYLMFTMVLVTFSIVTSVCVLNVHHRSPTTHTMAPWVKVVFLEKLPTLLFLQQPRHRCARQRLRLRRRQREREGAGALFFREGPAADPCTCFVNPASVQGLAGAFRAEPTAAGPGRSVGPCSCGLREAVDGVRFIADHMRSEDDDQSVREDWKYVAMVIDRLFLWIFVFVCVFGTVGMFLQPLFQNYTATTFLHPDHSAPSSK
Description: The predominant subtype with high affinity for nicotine is comprised of α4 and β2 subunits. nAChRs of the latter type can selectively be labelled by the nicotine agonist ^3H-cytisine.
Tissue Preparation: Preparations are performed at 0-4° C. unless otherwise indicated. […] The homogenate is centrifuged at 27,000×g for 10 min. The supernatant is discarded and the pellet is resuspended in fresh buffer and centrifuged a second time. The final pellet is resuspended in fresh buffer (35 ml per g of original tissue) and used for binding assays.
Assay: Aliquots of 500 μl homogenate are added to 25 μl of test solution and 25 μl of ^3H-cytisine (1 nM, final concentration), mixed and incubated for 90 min at 2° C. Non-specific binding is determined using (−)-nicotine (100 μM, final concentration). After incubation the samples are added 5 ml of ice-cold buffer and poured directly onto Whatman GF/C glass fibre filters under suction and immediately washed with 2×5 ml ice-cold buffer. The amount of radioactivity on the filters is determined by conventional liquid scintillation counting. Specific binding is total binding minus non-specific binding.

[3] = molecular target: T1, neuronal nicotinic receptors (α4β2 subtype high affinity site) (Rattus norvegicus, UniProt P09483+P12390); assay: In vitro inhibition of 3H-epibatidin binding
T1 construct: The forebrain (÷cerebellum) from a male Wistar rat (150-250 g) is homogenized; from tissue; host or cells: rat forebrain (without cerebellum) membrane homogenate
T1 sequence (P09483 31-630): as the sequence (P09483 31-630) above
T1 sequence (P12390 25-500): as the sequence (P12390 25-500) above
Description: The high affinity binding site for ^3H-epibatidin is most certainly binding to the α4β2 subtype of nicotinic receptors. The identity of the low affinity site is still unknown; does it represent a second nicotinic receptor or a second site in the same receptor.
Tissue preparation: Preparations are performed at 0-4° C. unless otherwise indicated. The forebrain (÷cerebellum) from a male Wistar rat (150-250 g) is homogenized for 10-20 sec in 20 ml Tris, HCl (50 mM, pH 7.4) using an Ultra-Turrax homogenizer. The tissue suspension is centrifuged at 27,000×g for 10 min. The supernatant is discarded and the pellet is washed three times by centrifugation at 27,000×g for 10 min in 20 ml fresh buffer, and the final pellet is resuspended in fresh buffer (400 ml per g of original tissue) and used for binding assays.
Assay: Aliquots of 2.0 ml homogenate are added to 0.100 ml of test solution and 0.100 ml of ^3H-epibatidin (0.3 nM, final concentration), mixed and incubated for 60 min at room temperature. Non-specific binding is determined using (−)-nicotine (30 μM, final concentration). After incubation the samples are poured directly onto Whatman GF/C glass fibre filters (presoaked in 0.1% PEI for at least 20 min) under suction and immediately washed with 2×5 ml ice-cold buffer. The amount of radioactivity on the filters is determined by conventional liquid scintillation counting. Specific binding is total binding minus non-specific binding.

[4] = rat cerebral cortex homogenate, 1 nM 3H-cytisine, 90 min at 2° C., read-out: 3H-cytisine IC50
[5] = rat forebrain homogenate, 0.3 nM 3H-epibatidin, 60 min at room temperature, read-out: 3H-epibatidin IC50

Chain of nAChR formed by the α7 subunit isoform (Q05941 23-502): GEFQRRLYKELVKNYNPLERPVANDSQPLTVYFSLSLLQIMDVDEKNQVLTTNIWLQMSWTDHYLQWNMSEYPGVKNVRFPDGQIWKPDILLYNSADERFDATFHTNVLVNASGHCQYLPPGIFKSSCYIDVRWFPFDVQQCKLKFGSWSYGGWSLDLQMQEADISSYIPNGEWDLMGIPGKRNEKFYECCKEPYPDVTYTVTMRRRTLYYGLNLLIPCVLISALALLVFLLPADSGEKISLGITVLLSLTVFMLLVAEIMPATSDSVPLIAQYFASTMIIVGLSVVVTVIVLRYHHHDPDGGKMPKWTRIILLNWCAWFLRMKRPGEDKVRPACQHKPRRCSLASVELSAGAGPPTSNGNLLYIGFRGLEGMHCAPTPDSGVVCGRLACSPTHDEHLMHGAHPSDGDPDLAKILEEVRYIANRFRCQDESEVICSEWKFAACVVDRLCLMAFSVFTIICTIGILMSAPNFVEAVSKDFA

SMILES: Cc1ccc(N2CCCNCC2)nn1 (as salt: fumaric acid salt) [Compound 5K, 1-(6-Methyl-3-pyridazinyl)-homopiperazine]
- melting point: 102 to 105 °C

SMILES: CN1CCN(c2cncc(-c3ccccc3)c2)CC1 (as salt: fumaric acid salt) [Compound 6A, 4-Methyl-1-(5-phenyl-3-pyridyl)-piperazine]
- melting point: 179 to 180 °C

SMILES: COc1cncc(N2CCCNCCC2)c1 (as salt: fumaric acid salt) [Compound 6B, 1-(5-Methoxy-3-pyridyl)-1,5-diazacyclooctane]
- melting point: 158 to 160 °C

SMILES: CCCCOc1cncc(N2CCCN(C)CC2)c1 (as salt: fumaric acid salt) [Compound 6E, 1-(5-Butoxy-3-pyridyl)-4-methyl-homopiperazine]
- melting point: 127 to 129 °C

SMILES: CC(C)COc1cncc(N2CCCNCC2)c1 (as salt: fumaric acid salt) [Compound 6H, 1-[5-(2-Methyl-propoxy)-3-pyridyl]-homopiperazine]
- melting point: 121.9 to 123.3 °C

SMILES: CCOc1cncc(N2CCN(C)CC2)c1 (as salt: fumaric acid salt) [Compound 7A, 1-(5-Ethoxy-3-pyridyl)-4-methyl-piperazine]
- melting point: 162.2 to 163.7 °C

SMILES: Clc1ccc(N2CCCNCCC2)nn1 (as salt: fumaric acid salt) [Compound 7B, 1-(6-Chloro-3-pyridazinyl)-1,5-diazacyclooctane]
- melting point: 176 to 178 °C

SMILES: Clc1ccc(N2CCCCNCC2)nn1 (as salt: fumaric acid salt) [Compound 8B, 1-(6-Chloro-3-pyridazinyl)-1,4-diazacyclooctane]
- melting point: 177 to 179 °C

SMILES: CC(C)COc1cncc(N2CCCN(C)CC2)c1 (as salt: fumaric acid salt) [Compound 8E, 4-Methyl-1-[5-(2-methyl-propyloxy)-3-pyridyl]-homopiperazine]
- melting point: 145.7 to 146.9 °C

SMILES: Brc1ccc(N2CCCNCC2)cn1 (as salt: fumaric acid salt) [Compound 8K, 1-(6-Bromo-3-pyridyl)-homopiperazine]
- melting point: 164 to 166 °C

SMILES: CCOc1cncc(N2CCN(CC)CC2)c1 (as salt: fumaric acid salt) [Compound 9D, 1-(5-Ethoxy-3-pyridyl)-4-ethyl-piperazine]
- melting point: 144.8 to 145.9 °C

SMILES: CN1CCCN(c2cncc(OCC3CC3)c2)CC1 (as salt: fumaric acid salt) [Compound 9E, 1-(5-Cyclopropylmethoxy-3-pyridyl)-4-methyl-homopiperazine]
- melting point: 160.4 to 161.9 °C

SMILES: c1ncc(N2CCCNCC2)cc1OCC1CC1 (as salt: fumaric acid salt) [Compound 9H, 1-(5-Cyclopropylmethoxy-3-pyridyl)-homopiperazine]
- melting point: 154 to 156 °C

SMILES: CCCOc1cncc(N2CCCN(C)CC2)c1 (as salt: fumaric acid salt) [Compound 10E, 4-Methyl-1-(5-propyloxy-3-pyridyl)-homopiperazine]
- melting point: 148.8 to 153.5 °C

SMILES: CCCOc1cncc(N2CCCNCC2)c1 (as salt: fumaric acid salt) [Compound 10H, 1-(5-Propyloxy-3-pyridyl)-homopiperazine]
- melting point: 156.2 to 157.8 °C

SMILES: COc1cncc(N2CCCNC(C)CC2)c1 (centres unmarked) (as salt: fumaric acid salt) [Compound 11A]
- melting point: 137 to 139 °C

SMILES: CCCCCCOc1cncc(N2CCCN(C)CC2)c1 (as salt: fumaric acid salt) [Compound 11E, 1-(5-Hexyloxy-3-pyridyl)-4-methyl-homopiperazine]
- melting point: 128.7 to 130.8 °C

SMILES: CC(C)CCOc1cncc(N2CCCN(C)CC2)c1 (as salt: fumaric acid salt) [Compound 12E, 4-Methyl-1-[5-(3-methyl-butoxy)-3-pyridyl]-homopiperazine]
- melting point: 130.4 to 131.9 °C

SMILES: CN1CCCN(c2cncc(OCC3CCCCC3)c2)CC1 (as salt: fumaric acid salt) [Compound 14E, 1-(5-Cyclohexylmethoxy-3-pyridyl)-4-methyl-homopiperazine]
- melting point: 160.4 to 162 °C

SMILES: CCCCCOc1cncc(N2CCCN(C)CC2)c1 (as salt: fumaric acid salt) [Compound 15E, 4-Methyl-1-(5-pentyloxy-3-pyridyl)-homopiperazine]
- melting point: 129 to 130.8 °C

SMILES: CCCCCCCOc1cncc(N2CCCN(C)CC2)c1 (as salt: fumaric acid salt) [Compound 16E, 1-(5-Heptyloxy-3-pyridyl)-4-methyl-homopiperazine]
- melting point: 120.2 to 121.8 °C

SMILES: C/C=C/Oc1cncc(N2CCCN(C)CC2)c1 (as salt: fumaric acid salt) [Compound 17E, trans-4-Methyl-1-(5-propyl-1-en-oxy-3-pyridyl)-homopiperazine]
- melting point: 126 to 128 °C

SMILES: CN1CCCN(c2cncc(SCc3ccccc3)c2)CC1 (as salt: fumaric acid salt) [Compound 18E, 4-Methyl-1-(5-thiobenzyl-3-pyridyl)-homopiperazine]
- melting point: 131 to 133 °C

SMILES: CN1CCCN(c2cncc(-c3cccnc3)c2)CC1 (as salt: fumaric acid salt) [Compound 19E, 4-Methyl-1-[5-(3-pyridyl)-3-pyridyl]-homopiperazine]
- melting point: 165.5 to 167.5 °C

SMILES: CN1CCCN(c2cncc(OC3CCCC3)c2)CC1 (as salt: fumaric acid salt) [Compound 25E, 1-(5-Cyclopentyloxy-3-pyridyl)-4-methyl-homopiperazine]
- melting point: 123 to 125 °C

SMILES: Oc1cncc(N2CCCNCC2)c1 (as salt: hydrochloric acid salt)
- melting point: 290 to 300 °C

SMILES: CN1CCN(c2cccnc2)CC1 [Compound 1A, 4-Methyl-1-(3-pyridyl)-piperazine]
- IC50 [1]: 6800 nM

SMILES: c1cncc(N2CCNCC2)c1 [Compound 1B, 1-(3-Pyridyl)-piperazine]
- IC50 [2, 4]: 130 nM
- IC50 [3, 5]: 630 nM
- IC50 [1]: > 30000 nM

SMILES: CCOc1cncc(N2CCNCC2)c1 [Compound 1D, 1-(5-Ethoxy-3-pyridyl)piperazine]
- IC50 [2, 4]: 500 nM
- IC50 [3]: 1000 nM
- IC50 [1]: > 30000 nM

SMILES: CN1CCCN(c2cccnc2)CC1 [Compound 1E, 4-Methyl-1-(3-pyridyl)-homopiperazine]
- IC50 [2, 4]: 150 nM
- IC50 [3]: 400 nM
- IC50 [1]: 4600 nM

SMILES: c1cncc(N2CCCNCC2)c1 [Compound 1F, 1-(3-Pyridyl)-homopiperazine]
- IC50 [2]: 2 nM
- IC50 [3]: 5 nM

SMILES: COc1cncc(N2CCCNCC2)c1 [Compound 1H, 1-(5-Methoxy-3-pyridyl)-homopiperazine]
- IC50 [2]: 2 nM
- IC50 [3]: 20 nM
- IC50 [1]: 3000 nM

SMILES: Clc1ccc(N2CCCNCC2)nn1 [Compound 1K, 1-(6-Chloro-3-pyridazinyl)-homopiperazine]
- IC50 [2]: 10 nM
- IC50 [3]: 60 nM
- IC50 [1]: 1400 nM

SMILES: c1cnnc(N2CCCNCC2)c1 [Compound 1L, 1-(3-Pyridazinyl)-homopiperazine]
- IC50 [2]: 30 nM
- IC50 [3]: 250 nM
- IC50 [1]: 1600 nM

SMILES: COc1cncc(N2CCN(C)C2)c1 [Compound 1M, 1-(5-Methoxy-3-pyridyl)-3-methyl-imidazolidine]
- IC50 [2]: 590 nM
- IC50 [3]: 8800 nM
- IC50 [1]: > 30000 nM

SMILES: CCCCOc1cncc(N2CCNCC2)c1 [Compound 2D, 1-(5-Butoxy-3-pyridyl)piperazine]
- IC50 [2, 4]: 180 nM
- IC50 [3]: 1400 nM
- IC50 [1]: > 30000 nM

SMILES: CN1CCCN(c2cnc3ccccc3c2)CC1 [Compound 2E, 4-Methyl-1-(3-quinolinyl)-homopiperazine]
- IC50 [2, 4]: 340 nM
- IC50 [3]: 4900 nM
- IC50 [1]: 1800 nM

SMILES: c1ccc2ncc(N3CCCNCC3)cc2c1 [Compound 2F, 1-(3-Quinolinyl)-homopiperazine]
- IC50 [2]: 6 nM
- IC50 [3]: 84 nM
- IC50 [1]: 5900 nM

SMILES: c1ccc(-c2cncc(N3CCCNCC3)c2)cc1 [Compound 2H, 1-(5-Phenyl-3-pyridyl)-homopiperazine]
- IC50 [2, 4]: 3 nM
- IC50 [3]: 20 nM
- IC50 [1]: 37000 nM

SMILES: COc1cncc(N2CCCN(C)CCC2)c1 [Compound 11A]
- IC50 [3, 5]: 1200 nM

SMILES: COc1cncc(N2CCCNC(C)CC2)c1 (centres unmarked) [Compound 11A]
- IC50 [2]: 40 nM
- IC50 [1]: > 30000 nM
